From PMC3183320 (Protein expression and purification, 2011)
“Also recorded” adds a separate entry of the source.

Legend:
BPV1 E6 [1] = target: T1, BPV1 E6 (Bovine papillomavirus type 1, UniProt P06931); assay: SPR; assay type: binding
BPV1 E6 [2] = target: T1, BPV1 E6; assay type: physicochemical; conditions: peptide provided during BPV1 E6 biosynthesis
HPV16 E6 = conditions: read-out: affinity of HPV16 E6 / E6AP; ref [29]; cited from earlier work
paxillin LXXLL peptide = target: T2, paxillin LXXLL peptide (Homo sapiens, UniProt P49023); assay: SPR
T2 chain: MDDLDALLADLESTT

[3] = target: T3, BPV1 E6 released from MBP-LXXLL-tevs-E6 by TEV protease (Bovine Papillomavirus Type 1, UniProt P06931 1-137); assay: SEC
T3 sequence: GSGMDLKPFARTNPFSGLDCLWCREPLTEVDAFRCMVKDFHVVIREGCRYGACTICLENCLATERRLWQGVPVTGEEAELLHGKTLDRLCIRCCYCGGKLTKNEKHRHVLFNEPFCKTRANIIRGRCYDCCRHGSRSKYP

Molecule: DDLDALLADKE [paxillin]
- dissociation phase (in words) (BPV1 E6 [1]; SPR sensorgrams, paxillin as compared to E6AP): remarkably slow dissociation phase; also recorded: slow dissociation rate kinetics
- affinity for BPV1 E6 (in words) (BPV1 E6 [1]; SPR, as compared to other E6/peptide interactions): significantly higher affinity as compared to other E6/peptide interactions; also recorded: significantly stronger; also recorded: high affinity

Molecule: EFTMDDLDALLADKE [paxillin LXXLL peptide]
- effect on BPV1 E6 protein solubility (in words) (BPV1 E6 [2]): greatly enhanced the protein’s solubility

Molecule: ESSELTLQELLGEER [E6AP]
- Kd (HPV16 E6): 4000 nM

B1: E6 (protein)
chain: MDLKPFARTNPFSGLDCLWCREPLTEVDAFRCMVKDFHVVIREGCRYGACTICLENCLATERRLWQGVPVTGEEAELLHGKTLDRLCIRCCYCGGKLTKNEKHRHVLFNEPFCKTRANIIRGRCYDCCRHGSRSKYP
- Kd (paxillin LXXLL peptide): 35.1 nM

Molecule: EFTMDDLDALLADKE [synthetic peptide derived from paxillin (LXXLL synthetic peptide)]
- binding result [3]: binds

Molecule: MDDLDALLADGGSGSNENLYFQ [MBP-fused LXXLL peptide (MBP-LXXLL-tevs left after TEV digestion of MBP-LXXLL-tevs-E6)]
- binding result [3]: binds
